Active and inactive are the calls of the source.
Experiments:
[1] = target: Induced myeloid leukemia cell differentiation protein Mcl-1 (Homo sapiens, UniProt Q07820); format: functional
[2] = tested on: Streptococcus sp. 'group A'; test: growth inhibition of control SK(-) GAS strain, dose response, counter-screen for streptokinase expression inhibitor project, luminescence, kanamycin, BacTiterGlo, confirmation (AID 1900); format: functional, organism-based
Streptococcus = test: Group A Streptococcus viability loss, dose response, counter-screen for streptokinase expression inhibitor project, luminescence, BacTiterGlo (AID 1915); format: functional, organism-based;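 also: potency for reduction of bacterial viability or growth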
[3] = P. falciparum Dd2 growth inhibitors, dose response, SYBR Green, cherry-picked samples (AID 1159567); format: functional, cell-based
[4] = inhibitors of clade B AD8 Env fusion, dose response, cell-based, cherry-pick (AID 652062); format: functional;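 also: luciferase signal from cell-cell fusion driven by HIV-1 clade B AD8 Env; potency is for inhibitors of fusion seen as a drop in luminescence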
[5] = inhibitors of HIV Env-driven cell fusion, dose response, cherry-pick (AID 652057); format: functional, cell-based
[6] = growth suppression of PTEN-null colon cells, dose response, cell-based, HCT116 PTEN knockout (AID 1047); format: functional;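 also: HCT116 colon tumor cells with PTEN knocked out; cells exposed to compound for 60 hours before readout; potency for loss of cell viability measured by luminescence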
[7] = growth suppression of beta-catenin-knockout colon cells, dose response, cell-based, HCT116, human colon tumor (AID 1045); format: functional;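 also: HCT116 colon tumor cells with beta catenin knocked out; cells exposed to compound for 60 hours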
[8] = target: T1, Corticotropin-releasing factor receptor 2/Corticotropin-releasing factor-binding protein (Homo sapiens, UniProt P24387+Q13324); test: Dose Response confirmation of uHTS hits for small molecule antagonists of the CRF-binding protein and CRF-R2 receptor complex.; format: functional; settings: read-out: IC50_Mean
T1 sequence (Q13324 whole entry): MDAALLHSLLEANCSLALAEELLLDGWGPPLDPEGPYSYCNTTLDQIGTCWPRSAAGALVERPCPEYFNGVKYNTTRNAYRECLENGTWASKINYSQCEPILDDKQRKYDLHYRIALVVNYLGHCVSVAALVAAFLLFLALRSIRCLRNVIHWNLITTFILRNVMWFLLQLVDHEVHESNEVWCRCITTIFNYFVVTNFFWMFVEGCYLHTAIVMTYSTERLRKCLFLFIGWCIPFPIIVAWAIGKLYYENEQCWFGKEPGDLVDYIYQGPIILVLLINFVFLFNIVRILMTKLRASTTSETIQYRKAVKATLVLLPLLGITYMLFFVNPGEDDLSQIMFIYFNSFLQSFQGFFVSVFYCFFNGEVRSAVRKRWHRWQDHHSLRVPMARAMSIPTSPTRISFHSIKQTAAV
T1 sequence (P24387 whole entry): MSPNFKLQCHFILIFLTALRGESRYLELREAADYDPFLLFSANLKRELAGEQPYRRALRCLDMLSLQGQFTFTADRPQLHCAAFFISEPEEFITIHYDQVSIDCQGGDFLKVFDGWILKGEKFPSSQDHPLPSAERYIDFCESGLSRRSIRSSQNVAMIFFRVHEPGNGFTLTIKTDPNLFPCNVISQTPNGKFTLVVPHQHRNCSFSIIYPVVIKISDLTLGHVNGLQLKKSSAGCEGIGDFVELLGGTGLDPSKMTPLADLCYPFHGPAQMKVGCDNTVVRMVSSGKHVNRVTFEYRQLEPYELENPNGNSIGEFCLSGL

[9] = CRF-BP/CRF-R2 complex antagonists, dose response, cell-based, uHTS hits, 384-well (AID 651639); format: functional, Homo sapiens; settings: read-out: IC50_Mean
[10] = target: T1, Corticotropin-releasing factor receptor 2/Corticotropin-releasing factor-binding protein; test: activators of CRF receptor 2 with binding protein – uHTS hits, confirmation (AID 602473); format: functional; settings: read-out: EC50_Mean
[11] = Luminescence Cell-Based Dose Response HTS to Identify Activators of Luciferase Translation or Activity in H4 […] Cells. [Related pubchem assays: 1829 (Project Summary), 1814 (Primary HTS)]; format: functional
H4 = test: Luminescence Cell-Based Dose Response HTS to Identify Activators of 5'UTR Stem-Loop Driven Prion Protein mRNA Translation in H4 Neuroglioblastoma Cells. [Related pubchem assays: 1829 (Project Summary), 1814 (Primary HTS)]; format: functional; settings: Homo sapiens
[12] = Luminescence Cell-Based Dose Confirmation HTS to Identify Activators of 5'UTR Stem-Loop Driven Alpha-Synuclein mRNA Translation in H4 Neuroglioblastoma Cells. [Related pubchem assays: 1829 (Project Summary), 1814 (Primary HTS)]; format: functional

Induced myeloid leukemia cell differentiation protein Mcl-1, sequence (Q07820 whole entry): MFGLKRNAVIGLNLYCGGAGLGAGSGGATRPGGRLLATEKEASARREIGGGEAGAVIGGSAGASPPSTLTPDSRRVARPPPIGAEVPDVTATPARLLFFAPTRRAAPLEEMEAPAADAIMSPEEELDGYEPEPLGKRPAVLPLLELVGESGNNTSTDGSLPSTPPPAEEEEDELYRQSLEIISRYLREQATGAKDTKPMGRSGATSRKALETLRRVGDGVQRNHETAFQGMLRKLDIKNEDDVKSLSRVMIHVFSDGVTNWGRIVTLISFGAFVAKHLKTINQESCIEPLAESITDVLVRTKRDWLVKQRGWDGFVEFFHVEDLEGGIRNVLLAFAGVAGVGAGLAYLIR

Question: Which IC50 [1] does the source give for O=c1c(/C=N/c2cc(O)nc(S)n2)coc2c1ccc1ccccc12 here?
Answer: 4.68 µM (active)

Question: What about the EC50 [2] of the same molecule?
Answer: 0.752 µM (active)

Question: And the EC50 (Streptococcus)?
Answer: 20.3 µM (active)

Question: With COCC(=O)N1CC2(C1)CN(Cc1cccc(Cl)c1)[C@@H](CO)c1[nH]c3cc(OC)ccc3c12 as the molecule, how does the AC50 [3] read?
Answer: 12.9 µM (active)

Question: For CN1C(=O)c2cc(NC(=O)c3cscn3)ccc2OC[C@@H]2O[C@@H](CC(=O)NCc3ccc(Cl)c(Cl)c3)CC[C@H]21, which AC50 [4] is on record?
Answer: 3.19 µM (active)

Question: What about the AC50 [5] of the same molecule?
Answer: 48.6 µM (active)

Question: With CS(=O)(=O)N1[C@H](C#N)[C@H](c2ccccc2-c2ccc(F)cc2)[C@H]1CO as the molecule, how does the AC50 [3] read?
Answer: 16.6 µM (active)

Question: For C#CCn1c(=O)c2c(ncn2C)n(C)c1=O, which AC50 [4] is on record?
Answer: 43.1 µM (active)

Question: Which AC50 [3] does the source give for C[C@@H]1CN([C@@H](C)CO)C(=O)c2cc(NC(=O)Nc3ccc4c(c3)OCO4)ccc2O[C@H]1CN(C)C(=O)Nc1cccc2ccccc12 here?
Answer: 4.89 µM (active)

Question: Which EC50 [6] does the source give for Cc1ccc2c(c1)c1c3n2CCN(C(=O)CN2CCN(C)CC2)C3CCC1 (configuration not stated) here?
Answer: 16.1 µM (active)

Question: And the EC50 [7]?
Answer: 16.7 µM (active)

Question: Which IC50 [8] does the source give for CCN(CC)C(=O)[C@H]1CC(CC(=O)NC/C=C(\C)CCC=C(C)C)C(=O)N2CCc3c([nH]c4ccc(OC)cc34)[C@]12C (some centres not stated) here?
Answer: 3.54 µM (active)

Question: What about the IC50 [9] of the same molecule?
Answer: 1.33 µM (active)

Question: And the EC50 [10]?
Answer: > 53 µM (inactive)

Question: For COc1cc2nc3c(O)n4c(nc-3c2cc1OC)SCCC4, which IC50 [8] is on record?
Answer: 3.83 µM (active)

Question: What about the EC50 [11] of the same molecule?
Answer: 3.61 µM (active)

Question: And the IC50 [9]?
Answer: > 20 µM (inactive)

Question: What about the EC50 (H4) of the same molecule?
Answer: 24.5 µM (active)

Question: And the EC50 [10]?
Answer: > 53 µM (inactive)

Question: What about the EC50 [12] of the same molecule?
Answer: > 120 µM (not active)

Question: Which EC50 [11] does the source give for CC(CNC(=O)c1ccc(OC2CCN(Cc3ccccn3)CC2)cc1)c1ccccc1 (configuration not stated) here?
Answer: 53.8 µM (active)

Question: What about the EC50 (H4) of the same molecule?
Answer: 35.6 µM (active)

Question: And the EC50 [12]?
Answer: 18.2 µM (active)

Question: With NC(=NOC(=O)Nc1ccccc1)c1ncc([N+](=O)[O-])s1 as the molecule, how does the EC50 [11] read?
Answer: > 120 µM (not active)

Question: What about the EC50 (H4) of the same molecule?
Answer: > 120 µM (not active)

Question: And the EC50 [12]?
Answer: > 120 µM (not active)

Question: Which AC50 [3] does the source give for C[C@H]1CN([C@@H](C)CO)C(=O)c2c(c3ccccc3n2C)-c2ccccc2CO[C@H]1CN(C)S(=O)(=O)c1ccccc1C#N here?
Answer: 5 µM (active)
